Paper PMC9177618 (Structure (London, England : 1993), 2022)
pIC50: −log10 of the molar value. Where a name gives a salt, the structure may show the parent alone. Each block holds one compound with its values, some of them ahead of it.

Legend:
[1] = system: more than 300 protein kinases and 30 other methyltransferases (MTases), including DNMT3a and 3b; conditions: ref Pappalardi et al., 2021; cited from earlier work
cancer cell = conditions: in vitro; ref Pappalardi et al., 2021; cited from earlier work
acute myeloid leukemia = conditions: mouse models of acute myeloid leukemia; ref Pappalardi et al., 2021; cited from earlier work
full-length DNMT1 = full-length DNMT1 (Homo sapiens, UniProt P26358); test: radioactive scintillation proximity assay; type: biochemical
Sequence of full-length DNMT1 (P26358 whole entry): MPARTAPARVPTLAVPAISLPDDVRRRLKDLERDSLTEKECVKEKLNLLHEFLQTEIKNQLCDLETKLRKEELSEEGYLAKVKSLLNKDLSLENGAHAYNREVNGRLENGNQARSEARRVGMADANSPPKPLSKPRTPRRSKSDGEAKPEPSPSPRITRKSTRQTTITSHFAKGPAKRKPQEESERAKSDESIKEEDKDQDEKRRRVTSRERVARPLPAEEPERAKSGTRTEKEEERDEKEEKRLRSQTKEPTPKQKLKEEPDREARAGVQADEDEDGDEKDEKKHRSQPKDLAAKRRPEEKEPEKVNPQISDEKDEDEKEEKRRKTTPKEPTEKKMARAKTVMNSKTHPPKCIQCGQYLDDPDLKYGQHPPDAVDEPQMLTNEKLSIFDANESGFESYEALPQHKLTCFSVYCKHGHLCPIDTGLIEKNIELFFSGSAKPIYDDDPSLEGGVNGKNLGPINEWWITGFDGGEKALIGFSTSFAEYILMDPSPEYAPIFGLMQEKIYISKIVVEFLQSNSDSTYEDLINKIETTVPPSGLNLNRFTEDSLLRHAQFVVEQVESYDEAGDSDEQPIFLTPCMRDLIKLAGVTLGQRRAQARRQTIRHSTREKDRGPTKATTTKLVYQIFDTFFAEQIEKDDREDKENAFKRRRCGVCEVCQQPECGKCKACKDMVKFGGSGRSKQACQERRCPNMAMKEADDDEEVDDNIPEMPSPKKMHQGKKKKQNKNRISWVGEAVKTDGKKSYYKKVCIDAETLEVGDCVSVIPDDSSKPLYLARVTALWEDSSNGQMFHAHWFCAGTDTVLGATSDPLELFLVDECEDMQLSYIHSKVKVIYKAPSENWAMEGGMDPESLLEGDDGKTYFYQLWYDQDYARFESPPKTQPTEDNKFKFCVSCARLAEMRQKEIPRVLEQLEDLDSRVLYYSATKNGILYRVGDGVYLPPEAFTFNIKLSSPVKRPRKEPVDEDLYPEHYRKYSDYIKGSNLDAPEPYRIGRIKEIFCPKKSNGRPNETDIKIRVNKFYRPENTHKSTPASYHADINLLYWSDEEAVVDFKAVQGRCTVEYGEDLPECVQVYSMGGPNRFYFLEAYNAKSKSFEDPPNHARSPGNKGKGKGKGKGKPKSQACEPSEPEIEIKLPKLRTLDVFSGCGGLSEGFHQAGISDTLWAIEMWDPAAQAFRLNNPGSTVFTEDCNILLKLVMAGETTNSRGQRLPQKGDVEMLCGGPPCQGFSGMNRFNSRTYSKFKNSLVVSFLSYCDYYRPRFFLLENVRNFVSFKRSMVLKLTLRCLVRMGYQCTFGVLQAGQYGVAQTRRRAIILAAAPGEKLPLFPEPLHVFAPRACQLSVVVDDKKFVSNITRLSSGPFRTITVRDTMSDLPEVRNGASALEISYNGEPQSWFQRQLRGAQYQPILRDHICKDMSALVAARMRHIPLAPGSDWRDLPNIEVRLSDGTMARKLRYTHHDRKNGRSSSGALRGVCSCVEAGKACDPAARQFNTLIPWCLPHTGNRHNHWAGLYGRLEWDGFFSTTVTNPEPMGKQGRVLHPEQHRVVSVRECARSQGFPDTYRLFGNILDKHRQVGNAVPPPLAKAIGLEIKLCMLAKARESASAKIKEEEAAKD

[2] = system: mouse embryonic stem cells; conditions: ref Portilho et al., 2021; cited from earlier work
Dnmt1 = conditions: murine pre-implantation Dnmt3a/3b knockout embryos; ref Haggerty et al., 2021; cited from earlier work

SMILES: CCc1c(C#N)c(SC(C(N)=O)c2ccccc2)nc(N2CCC(N)CC2)c1C#N (stereo not shown) [GSK3685032]
selectivity for DNMT1 [1]: selective for DNMT1 over more than 300 protein kinases and 30 other methyltransferases | inhibition of cancer cell growth (cancer cell): inhibits cancer cell growth | tumor regression and survival compared with decitabine (Dacogen) (acute myeloid leukemia): superior to decitabine

pIC50 (full-length DNMT1): 7.22 to 7.52
SMILES: CCc1c(C#N)c(SCc2ccc(CNC(=O)CN)cc2)nc(N2CCCN(C)CC2)c1C#N [GSK3735967, 2-amino-N-(4-(((3,5-dicyano-4-ethyl-6-(4-methyl-1,4-diazepan-1-yl)pyridin-2-yl)thio)methyl)benzyl)acetamide]

pIC50 (full-length DNMT1): 7.22 to 7.52
SMILES: CCc1c(C#N)c(SC(C(N)=O)c2ccc(C(F)(F)F)cc2)nc(N2CCC(N)CC2)c1C#N (stereo not shown) [GSK3852279, 2-((6-(4-aminopiperidin-1-yl)-3,5-dicyano-4-ethylpyridin-2-yl)thio)-2-(4-(trifluoromethyl)phenyl)acetamide trifluoroacetate]

pIC50 (full-length DNMT1): 7.22 to 7.52
SMILES: CCc1c(C#N)c(SC(C(N)=O)c2ccccc2)nc(N2CCCN(CCO)CC2)c1C#N (stereo not shown) [GSK3543105, 2-((3,5-dicyano-4-ethyl-6-(4-(2-hydroxyethyl)-1,4-diazepan-1-yl)pyridin-2-yl)thio)-2-phenylacetamide]

reduced potency relative to the ~30-60 nM compounds (full-length DNMT1; full-length DNMT1, 40-mer hemimethylated DNA duplex, radioactive SPA): 3-6 fold
SMILES: CCc1c(C#N)c(N[C@@H](C(N)=O)c2ccccc2)nc(N2CCC(N)CC2)c1C#N [GSK3830334, (R)-2-((6-(4-aminopiperidin-1-yl)-3,5-dicyano-4-ethylpyridin-2-yl)amino)-2-phenylacetamide]

SMILES: CCc1c(C#N)c(SC(C(N)=O)c2ccccc2)nc(N(C)C)c1C#N (stereo not shown) [GSK3484862]
demethylation [2]: demethylation in mouse embryonic stem cells, in a level similar to that observed with Dnmt1 knockouts | non-specific toxicity [2]: minimal non-specific toxicity | inhibition of Dnmt1 (Dnmt1): inhibits Dnmt1
